Reference: patent US20150150810A1, “TABLETS FOR COMBINATION THERAPY” (Gilead Sciences, Inc., priority 2009, published 2015)

Experiments:
[1] = Pharmacokinetic study of fixed-dose combinations of Formula I/Formula II/Formula III/Formula IV; type: in vivo; settings: mean (CV %); for Cmax / AUC: in vivo
Description: A pharmacokinetic study involving two fixed-dose combinations of the compounds of Formula I/Formula II/Formula III/Formula IV was also conducted. Doses for the fixed-dose combination of the compounds of Formula I/Formula II/Formula III/Formula IV were 150 mg/100 mg/200 mg/300 mg (Dose A) and 150 mg/150 mg/200 mg/300 mg (Dose B) respectively. Pharmacokinetic data for the compound of Formula II from the study involving the two fixed dose combinations (Dose A and Dose B) is provided in the following table.

[2] = Pharmacokinetic dose-ranging study of the compound of Formula II; type: in vivo; settings: 100 mg dose
Description: A pharmacokinetic dose-ranging study involving the compound of Formula II was conducted. Doses for the compound of Formula II for the dose-ranging study included 50 mg, 100 mg and 200 mg.

[3] = Chemical stability of Formula IV in tablet combinations; type: physicochemical
Excerpt: Additionally, improper combinations of the compounds of Formula I, II, III, or IV in a bilayer tablet will also compromise the chemical stability of Formula IV. For example, Formula IV in the presence of silicon dioxide from the Formula II formulation will decompose Formula IV; and Formula IV in the in the presence of sodium lauryl sulphate from the Formula I formulation will decompose Formula IV.

[4] = Dose A: 150 mg/100 mg/200 mg/300 mg, n = 43
[5] = Dose B: 150 mg/150 mg/200 mg/300 mg, n = 42
[6] = in vivo, n = 11, arithmetic mean

Ctau [1, 4] | Ctau [1, 5] | Cmax [1, 4] | AUC ([1]; Dose A: Formula I/II/III/IV 150 mg/100 mg/200 mg/300 mg, n = 43) | Cmax [1, 5] | AUC ([1]; Dose B: Formula I/II/III/IV 150 mg/150 mg/200 mg/300 mg, n = 42) | CL/F ([2]; n = 11, arithmetic mean) | T1/2 ([2]; n = 11, median) | AUC [2, 6] | Cmax [2, 6] | Compound | chemical stability of Formula IV ([3]; Formula I, II, III and IV combined in a mixture as mono layer tablet) | chemical stability of Formula IV ([3]; in the presence of silicon dioxide from the Formula II formulation) | chemical stability of Formula IV ([3]; in the presence of sodium lauryl sulphate from the Formula I formulation)
10.8 (83.6) ng/mL | 23.3 (103) ng/mL | 0.855 µg/mL | 5.15 µg·h/mL | 1.57 µg/mL | 10.4 µg·h/mL | 33.2 L/h | 3.12 h | 3.44 µg·h/mL | 0.563 µg/mL | CC(C)c1nc(CN(C)C(=O)N[C@@H](CCN2CCOCC2)C(=O)N[C@H](CC[C@H](Cc2ccccc2)NC(=O)OCc2cncs2)Cc2ccccc2)cs1 [Formula II] |  |  | 
 |  |  |  |  |  |  |  |  |  | CC(C)OC(=O)OCOP(=O)(CO[C@H](C)Cn1cnc2c(N)ncnc21)OCOC(=O)OC(C)C.O=C(O)/C=C/C(=O)O [Formula IV, tenofovir disoproxil fumarate] | compromises the chemical stability | decompose | decompose
